Converted amounts (≈) assume the structure as drawn.
Assay: Solubility in Glycerol/H2O (60/40)
Details: Glycerol/H2O (60/40)

Compound | Solubility in Glycerol/H2O (60/40) [mM]
(4-{[2-(2-methoxyethoxy)ethyl][(1-oxyl-2,2,6,6-tetramethylpiperidin-4-yl)carbamoyl]amino}-2,2,6,6-tetramethylpiperidin-1-yl)oxidanyl [Compound 51] | ~10
(4-{(2,5,8,11-tetraoxatridecan-13-yl)[(1-oxyl-2,2,6,6-tetramethyl piperidin-4-yl)carbamoyl]amino}-2,2,6,6-tetramethylpiperidin-1-yl)oxidanyl [Compound 52] | ~10
(4-{3-[1-(PEG)-1H-1,2,3-Triazol-4-yl]propyl}[(1-oxyl-2,2,6,6-tetramethylpiperidin-4-yl)carbamoyl]amino}-2,2,6,6-tetramethylpiperidin-1-yl)oxidanyl [Compound 61] | ~20
(15-{[(7-oxyl-3,11-dioxa-7-azadispiro[5.1.5.3]hexadec-15-yl)carbamoyl][2-(2,5,8,11-tetraoxatridecan-13-ylamino)}-[3,11-dioxa-7-azadispiro[5.1.5.3]hexadec-7-yl])oxidanyl [Compound 58] | ~25
α-{(7-Oxyl-3,11-dioxa-7-azadispiro[5.1.5.3]hexadec-15-yl)[(7-oxyl-3,11-dioxa-7-azadispiro[5.1.5.3]hexadec-15-yl)carbamoyl]amino}ω-methylpoly(ethane-1,2-diyloxy) [Compound 72] | >20
4,4-ureylene-di-(2,2,6,6-tetramethylpiperidinyloxyl) [bTUrea, reference compound] | ~3
(15-{[(7-oxyl-3,11-dioxa-7-azadispiro[5.1.5.3]hexadec-15-yl)carbamoyl][2-(2-methoxyethoxy)ethyl]amino}-[3,11-dioxa-7-azadispiro[5.1.5.3]hexadec-7-yl])oxidanyl [Compound 57] | ~25

Same assay, conditions: glycerol/water (60/40), aqueous with cosolvent or surfactant or cyclodextrin

Compound | solubility [mM]
[O]N1C2(CCOCC2)CC(NC(=O)NC2CC3(CCOCC3)N([O])C3(CCOCC3)C2)CC12CCOCC2 (stereo not shown) [Compound 56, (15-{[(7-Oxyl-3,11-dioxa-7-azadispiro[5.1.5.3]hexadec-15-yl)carbamoyl]amino}-[3,11-dioxa-7-azadispiro[5.1.5.3]hexadec-7-yl])oxidanyl] | ~25 (≈ 13.4 mg/mL)
O=C(NC1CC2(CCOCC2)N(O)C2(CCOCC2)C1)N(CCOCCO)C1CC2(CCOCC2)N(O)C2(CCOCC2)C1 (stereo not shown) [Compound 71, (15-{[(7-Oxyl-3,11-dioxa-7-azadispiro[5.1.5.3]hexadec-15-yl)carbamoyl][2-(2-hydroxyethoxy)ethyl]amino}-[3,11-dioxa-7-azadispiro[5.1.5.3]hexadec-7-yl])oxidanyl] | > 20
COCCOCCOCCOCCOC1CN(C2CC3(CCOCC3)N([O])C3(CCOCC3)C2)C(=O)N(C2CC3(CCOCC3)N([O])C3(CCOCC3)C2)C1 (stereo not shown) [Compound 70, 1,3-Bis(7-oxyl-3,11-dioxa-7-azadispiro[5.1.5.3]hexadec-15-yl)-5-(2,5,8,11-tetraoxatridecan-13-yloxy)tetrahydropyrimidin-2(1H)-one] | > 10

Source: patent publication US9738657B2, “Highly efficient polarizing agents for dynamic nuclear polarization” (Bruker Biospin S.A.S., priority 2013, dated 2017)
